These results are taken from article PMC5727100, “Evolution of a flipped pathway creates metabolic innovation in tomato trichomes through BAHD enzyme promiscuity” (Nature Communications, 2017).

For the assay, the target named is T1, S. arcanum LA2172-ASAT2 (Solanum arcanum, UniProt A0A0U2QQP2).
T1 construct: pET28b, His-tag nickel purified from E. coli BL21 Rosetta
T1 sequence (A0A0U2QQP2 1-446): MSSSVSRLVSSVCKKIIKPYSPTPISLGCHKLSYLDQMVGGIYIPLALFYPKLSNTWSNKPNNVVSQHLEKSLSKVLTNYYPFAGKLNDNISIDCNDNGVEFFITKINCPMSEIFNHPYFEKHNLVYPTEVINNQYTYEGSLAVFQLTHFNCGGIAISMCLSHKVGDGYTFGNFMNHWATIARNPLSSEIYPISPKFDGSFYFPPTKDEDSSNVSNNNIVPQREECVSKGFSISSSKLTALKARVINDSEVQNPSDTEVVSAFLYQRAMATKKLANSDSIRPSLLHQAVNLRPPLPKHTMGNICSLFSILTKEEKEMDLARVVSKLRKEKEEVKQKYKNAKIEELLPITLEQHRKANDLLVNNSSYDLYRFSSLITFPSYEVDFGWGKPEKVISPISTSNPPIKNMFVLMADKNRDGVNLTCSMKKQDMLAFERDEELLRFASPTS
Briefly: LC/MS product detection. The settings on record: acyl-CoA donor 100 uM; acceptor 50 uM; pH 6.0, 30 C. The format is biochemical.

Regarding `CC(C)CC(=O)O[C@H]1[C@H](O)[C@@H](O)[C@@H](O[C@]2(CO)O[C@H](CO)[C@@H](O)[C@@H]2O)O[C@@H]1CO` [S1:5 (iC5^R4)], the LC/MS product detection entry is recorded as “all characterized ASAT2 proteins in this tomato subclade possessed only F-type enzymatic activities”.
